≈ marks a conversion by molar mass, not a printed value.
Experiments:
[1] = Cytotoxicity against human HT-29 cells assessed as reduction in cell viability measured after 48 hrs by resazurin dye-based fluorometric analysis relative to control; type: functional
[2] = Cytotoxicity against human HT-29 cells assessed as reduction in cell viability measured after 48 hrs by resazurin dye-based fluorometric analysis; type: functional
[3] = Cytotoxicity against human PC3 cells assessed as reduction in cell viability measured after 48 hrs by resazurin dye-based fluorometric analysis relative to control; type: functional, PC-3; parameters: concentration or dose not given beside the values
Aspergillus fumigatus [4] = assay: Antifungal activity against Aspergillus fumigatus isolate 2 measured after 48 hrs by broth dilution method; type: functional; settings: isolate 2, 48 h
[5] = Antifungal activity against Trichophyton rubrum isolate 1 measured after 48 hrs by broth dilution method; type: functional
[6] = Antifungal activity against Trichophyton rubrum isolate 2 measured after 48 hrs by broth dilution method; type: functional
[7] = Antifungal activity against Trichophyton mentagrophytes isolate 1 measured after 48 hrs by broth dilution method; type: functional
[8] = Antifungal activity against Trichophyton mentagrophytes isolate 2 measured after 48 hrs by broth dilution method; type: functional
[9] = Antifungal activity against Epidermophyton floccosum isolate 1 measured after 48 hrs by broth dilution method; type: functional
Aspergillus fumigatus [10] = assay: Antifungal activity against Aspergillus fumigatus isolate 1 measured after 48 hrs by broth dilution method; type: functional; settings: isolate 1, 48 h

For `CCc1ccc(/C=c2\[nH]c(=O)/c(=C/c3nc[nH]c3C(C)(C)C)[nH]c2=O)s1.O=C(O)C(F)(F)F`, the “inhibition (INH)” value [1] was 87%.

With `COc1cc(/C=c2\[nH]c(=O)/c(=C/c3nc[nH]c3C(C)(C)C)[nH]c2=O)cc(OC)c1` the EC50 ([2]; Homo sapiens, HT-29, 48 h) was 42 to 45.4 nM, the Activity [3] was 82% and the “inhibition (INH)” value [1] was 87%.

In the case of `Cc1cccc(/C=c2\[nH]c(=O)/c(=C/c3nc[nH]c3C(C)(C)C)[nH]c2=O)n1.O=C(O)C(F)(F)F.O=C(O)C(F)(F)F`, the EC50 ([2]; Homo sapiens, HT-29, 48 h) is reported as greater than 2000 nM and the “inhibition (INH)” value [1] is reported as 37%.

Molecule `CC(C)(C)c1ocnc1/C=c1\[nH]c(=O)/c(=C/c2c3ccccc3cc3ccccc23)[nH]c1=O` has an EC50 ([2]; Homo sapiens, HT-29, 48 h) greater than 6230 nM.

With `Cc1ccsc1/C=c1\[nH]c(=O)/c(=C/c2nc[nH]c2C(C)(C)C)[nH]c1=O` the EC50 ([2]; Homo sapiens, HT-29, 48 h) was 44 to 47 nM, the Activity [3] was 81% and the “inhibition (INH)” value [1] was 86%.

In the case of `Cc1ccc(/C=c2\[nH]c(=O)/c(=C/c3nc[nH]c3C(C)(C)C)[nH]c2=O)s1`, the EC50 ([2]; Homo sapiens, HT-29, 48 h) is reported as 80 to 85.2 nM and the “inhibition (INH)” value [1] is reported as 85 - 97%.

Work on `COC1=CC(=O)C[C@@H](C)[C@]12Oc1c(Cl)c(OC)cc(OC)c1C2=O` [GRISEOFULVIN] yielded an MIC (Aspergillus fumigatus [4]) of 0.5 µg/mL (≈ 1.42 µM), an MIC [5] of 0.5 µg/mL (≈ 1.42 µM) and an MIC [6] of less than 0.015 µg/mL. It also gave an MIC [7] of 1 µg/mL (≈ 2.83 µM), an MIC [8] of 2 µg/mL (≈ 5.67 µM) and an MIC [9] of 2 µg/mL (≈ 5.67 µM).

For `Cn1cccc1/C=c1\[nH]c(=O)/c(=C/c2nc[nH]c2C(C)(C)C)[nH]c1=O.O=C(O)C(F)(F)F`, the EC50 ([2]; Homo sapiens, HT-29, 48 h) was 105 to 117 nM and the “inhibition (INH)” value [1] was 88%.

With `COc1cccc(/C=c2\[nH]c(=O)/c(=C/c3nc[nH]c3C(C)(C)C)[nH]c2=O)c1O` the EC50 ([2]; Homo sapiens, HT-29, 48 h) was 5360 to 5870 nM and the “inhibition (INH)” value [1] was 79 - 86%.

In the case of `COc1ccsc1/C=c1\[nH]c(=O)/c(=C/c2nc[nH]c2C(C)(C)C)[nH]c1=O.O=C(O)C(F)(F)F`, the “inhibition (INH)” value [1] is reported as 88%.

With `CC(C)(C)c1[nH]cnc1/C=c1\[nH]c(=O)/c(=C/c2cccc(OC(F)(F)F)c2)[nH]c1=O.O=C(O)C(F)(F)F` the EC50 ([2]; Homo sapiens, HT-29, 48 h) was 13 to 14.3 nM and the “inhibition (INH)” value [1] was 87%.

For `CC(C)(C)c1[nH]cnc1/C=c1\[nH]c(=O)/c(=C/c2cccc3c2OCO3)[nH]c1=O.O=C(O)C(F)(F)F`, the EC50 ([2]; ht-29) was 477 to 520 nM and the “inhibition (INH)” value [1] was 82%.

In the case of `COc1cccc(/C=c2\[nH]c(=O)/c(=C/c3nc[nH]c3C(C)(C)C)[nH]c2=O)c1N.O=C(O)C(F)(F)F`, the “inhibition (INH)” value [1] is reported as 87%.

In the case of `COc1cc(/C=c2\[nH]c(=O)/c(=C/c3nc[nH]c3C(C)(C)C)[nH]c2=O)ccc1F.O=C(O)C(F)(F)F`, the “inhibition (INH)” value [1] is reported as 85%.

In the case of `C=CC(C)(C)c1[nH]cnc1/C=C1\NC(=O)C(Cc2ccccc2)N=C1OC` (stereo not drawn), the EC50 ([2]; Homo sapiens, HT-29, 48 h) is reported as greater than 2000 nM and the “inhibition (INH)” value [1] is reported as 13%.

`CC(C)(C)c1[nH]cnc1/C=c1\[nH]c(=O)/c(=C/c2ccc(Cl)s2)[nH]c1=O` showed an EC50 ([2]; Homo sapiens, HT-29, 48 h) of 165 to 184 nM.

With `COc1cc(OC)c(/C=c2\[nH]c(=O)/c(=C/c3nc[nH]c3C(C)(C)C)[nH]c2=O)c(OC)c1.O=C(O)C(F)(F)F` the EC50 ([2]; Homo sapiens, HT-29, 48 h) was greater than 2000 nM and the “inhibition (INH)” value [1] was 2%.

With `CSc1ccccc1/C=c1\[nH]c(=O)/c(=C/c2nc[nH]c2C(C)(C)C)[nH]c1=O.O=C(O)C(F)(F)F` the “inhibition (INH)” value [1] was 87%.

For `CC(C)(C)c1[nH]cnc1/C=c1\[nH]c(=O)/c(=C/c2sccc2B(O)O)[nH]c1=O.O=C(O)C(F)(F)F`, the “inhibition (INH)” value [1] was 88%.

For `C=CC(C)(C)c1[nH]cnc1/C=c1\[nH]c(=O)/c(=C/c2ccc(OC)cc2)[nH]c1=O`, the EC50 ([2]; Homo sapiens, HT-29, 48 h) was 6570 to 6730 nM and the “inhibition (INH)” value [1] was 63%.

With `CC(C)(C)c1[nH]cnc1/C=c1\[nH]c(=O)/c(=C/c2cc([N+](=O)[O-])ccc2Cl)[nH]c1=O` the EC50 ([2]; Homo sapiens, HT-29, 48 h) was 51 to 53.4 nM, the Activity [3] was 100% and the “inhibition (INH)” value [1] was 86%.

With `CC(C)(C)c1[nH]cnc1/C=c1\[nH]c(=O)/c(=C/c2ccc(Br)o2)[nH]c1=O.O=C(O)C(F)(F)F` the “inhibition (INH)” value [1] was 87%.

For `COc1cccc2cc3c(=O)[nH]/c(=C\c4nc[nH]c4C(C)(C)C)c(=O)n3c12`, the EC50 ([2]; Homo sapiens, HT-29, 48 h) was 6920 to 7040 nM and the “inhibition (INH)” value [1] was 58 - 100%.

For `COc1ccc(/C=c2\[nH]c(=O)/c(=C/c3nc[nH]c3C(C)(C)C)[nH]c2=O)c(O)c1.O=C(O)C(F)(F)F`, the EC50 ([2]; Homo sapiens, HT-29, 48 h) was greater than 2000 nM and the “inhibition (INH)” value [1] was 8%.

`CC(C)(C)c1ocnc1/C=c1\[nH]c(=O)/c(=C/c2cn(S(=O)(=O)c3ccccc3)c3ccccc23)[nH]c1=O` showed an EC50 ([2]; Homo sapiens, HT-29, 48 h) greater than 6230 nM.

In the case of `COc1ccc(/C=c2\[nH]c(=O)/c(=C/c3nc[nH]c3C(C)(C)C)[nH]c2=O)cc1O.O=C(O)C(F)(F)F`, the “inhibition (INH)” value [1] is reported as 66%.

For `CC(C)(C)c1[nH]cnc1/C=c1\[nH]c(=O)/c(=C/c2cc(Br)ccc2O)[nH]c1=O.O=C(O)C(F)(F)F`, the EC50 ([2]; Homo sapiens, HT-29, 48 h) was greater than 2000 nM and the “inhibition (INH)” value [1] was 13%.

For `CC(C)(C)c1ccc(O)c(/C=c2\[nH]c(=O)/c(=C/c3ccccc3)[nH]c2=O)c1.O=C(O)C(F)(F)F`, the EC50 ([2]; Homo sapiens, HT-29, 48 h) was greater than 2000 nM and the “inhibition (INH)” value [1] was 14%.

For `Cc1[nH]cnc1/C=c1\[nH]c(=O)/c(=C/c2nc[nH]c2C(C)(C)C)[nH]c1=O.O=C(O)C(F)(F)F.O=C(O)C(F)(F)F`, the EC50 ([2]; Homo sapiens, HT-29, 48 h) was 2350 to 2790 nM and the “inhibition (INH)” value [1] was 84%.

With `CCC(C)n1ncn(-c2ccc(N3CCN(c4ccc(OCC5COC(Cn6cncn6)(c6ccc(Cl)cc6Cl)O5)cc4)CC3)cc2)c1=O` (stereo not drawn) [ITRACONAZOLE] the MIC (Aspergillus fumigatus [10]) was 1 µg/mL (≈ 1.42 µM).

In the case of `CC(C)(C)c1[nH]cnc1/C=c1\[nH]c(=O)/c(=C/c2cc(Cl)cc(Cl)c2)[nH]c1=O.O=C(O)C(F)(F)F`, the “inhibition (INH)” value [1] is reported as 87%.

In the case of `CC(C)(C)c1[nH]cnc1/C=c1\[nH]c(=O)/c(=C/c2ccc(C#N)cc2)[nH]c1=O.O=C(O)C(F)(F)F`, the “inhibition (INH)” value [1] is reported as 14%.

For `CC(C)(C)c1ccc(O)c(/C=c2\[nH]c(=O)/c(=C/c3nc[nH]c3C(C)(C)C)[nH]c2=O)c1.O=C(O)C(F)(F)F`, the “inhibition (INH)” value [1] was 80%.

For `C=CC(C)(C)c1[nH]cnc1/C=C1\N=C(OC)C(Cc2ccccc2)N=C1OC` (stereo not drawn), the EC50 ([2]; Homo sapiens, HT-29, 48 h) was greater than 2000 nM and the “inhibition (INH)” value [1] was 4%.

For `CC(C)(C)c1[nH]cnc1/C=c1\[nH]c(=O)/c(=C/c2ccccc2N)[nH]c1=O.O=C(O)C(F)(F)F`, the “inhibition (INH)” value [1] was 86%.

With `Cc1c(F)cccc1/C=c1\[nH]c(=O)/c(=C/c2nc[nH]c2C(C)(C)C)[nH]c1=O.O=C(O)C(F)(F)F` the “inhibition (INH)” value [1] was 86%.

For `C=CC(C)(C)c1[nH]cnc1/C=c1\[nH]c(=O)/c(=C\c2ccc(OC)cc2)[nH]c1=O`, the “inhibition (INH)” value [1] was 63%.

With `COc1cccc(/C=c2\[nH]c(=O)/c(=C/c3nc[nH]c3C(C)(C)C)[nH]c2=O)c1[N+](=O)[O-].O=C(O)C(F)(F)F` the “inhibition (INH)” value [1] was 83%.

With `Cc1ccc(C)c(/C=c2\[nH]c(=O)/c(=C/c3nc[nH]c3C(C)(C)C)[nH]c2=O)c1.O=C(O)C(F)(F)F` the “inhibition (INH)” value [1] was 87%.

With `CCc1ccc(/C=c2\[nH]c(=O)/c(=C/c3nc[nH]c3C(C)(C)C)[nH]c2=O)o1.O=C(O)C(F)(F)F` the EC50 ([2]; Homo sapiens, HT-29, 48 h) was 2420 nM and the “inhibition (INH)” value [1] was 86%.

Work on `COc1cccc(C)c1/C=c1\[nH]c(=O)/c(=C/c2nc[nH]c2C(C)(C)C)[nH]c1=O` yielded an EC50 ([2]; Homo sapiens, HT-29, 48 h) of 517 nM.

In the case of `CC(C)(C)c1[nH]cnc1/C=c1\[nH]c(=O)/c(=C/c2cc(Cl)ccc2O)[nH]c1=O.O=C(O)C(F)(F)F`, the EC50 ([2]; Homo sapiens, HT-29, 48 h) is reported as greater than 2000 nM and the “inhibition (INH)” value [1] is reported as 37%.

For `CC(C)(C)c1[nH]cnc1/C=c1\[nH]c(=O)/c(=C/c2cccc3c2OCO3)[nH]c1=O`, the EC50 ([2]; ht-29) was 52 nM.

With `Cc1cccc(/C=c2\[nH]c(=O)/c(=C/c3nc[nH]c3C(C)(C)C)[nH]c2=O)c1C.O=C(O)C(F)(F)F` the EC50 ([2]; Homo sapiens, HT-29, 48 h) was 2.96 to 3 nM and the “inhibition (INH)” value [1] was 87%.

Molecule `CC(C)(C)c1ocnc1/C=c1\[nH]c(=O)/c(=C/c2cc3ccccc3s2)[nH]c1=O` has an EC50 ([2]; Homo sapiens, HT-29, 48 h) greater than 2000 nM.

For `CC(C)(C)c1[nH]cnc1/C=c1\[nH]c(=O)/c(=C/c2cc(Br)cs2)[nH]c1=O.O=C(O)C(F)(F)F`, the EC50 ([2]; Homo sapiens, HT-29, 48 h) was 1710 nM and the “inhibition (INH)” value [1] was 86%.

In the case of `COc1ccc(F)c(/C=c2\[nH]c(=O)/c(=C/c3nc[nH]c3C(C)(C)C)[nH]c2=O)c1.O=C(O)C(F)(F)F`, the EC50 ([2]; Homo sapiens, HT-29, 48 h) is reported as 19 to 20.3 nM and the “inhibition (INH)” value [1] is reported as 88%.

Reference: ChEMBL document CHEMBL3881525, “Analogs of dehydrophenylahistins and their therapeutic use” (2007)
